# Legend:
# NCI-H460 = test: NCI-60 anticancer screening (SRB); format: cell-based; conditions: Homo sapiens; for inhibition at 10 µM: NCI-H460, NSC lung cancer, one dose 10 μM, read-out: Growth Inhibition Percentage (GI %)
# M14 = test: NCI-60 anticancer screening (SRB); format: cell-based; conditions: Homo sapiens; for inhibition at 10 µM: M14, melanoma, one dose 10 μM, read-out: Growth Inhibition Percentage (GI %)
# UACC-62 = test: NCI-60 anticancer screening (SRB); format: cell-based; conditions: Homo sapiens; for inhibition at 10 µM: UACC-62, melanoma, one dose 10 μM, read-out: Growth Inhibition Percentage (GI %)
# NCI-H522 = test: NCI-60 anticancer screening (SRB); format: cell-based; conditions: Homo sapiens; for inhibition at 10 µM: NCI-H522, NSC lung cancer, one dose 10 μM, read-out: Growth Inhibition Percentage (GI %)
# SW-620 = test: NCI-60 anticancer screening (SRB); format: cell-based; conditions: Homo sapiens; for inhibition at 10 µM: SW-620, colon cancer, one dose 10 μM, read-out: Growth Inhibition Percentage (GI %)
# HS 578T = test: NCI-60 anticancer screening (SRB); format: cell-based; conditions: Homo sapiens; for inhibition at 10 µM: HS 578T, breast cancer, one dose 10 μM, read-out: Growth Inhibition Percentage (GI %)
# NCI/ADR-RES = test: NCI-60 anticancer screening (SRB); format: cell-based; conditions: Homo sapiens, ovarian cancer, one dose 10 μM, read-out: Growth Inhibition Percentage (GI %)
# SN 12C = test: NCI-60 anticancer screening (SRB); format: cell-based; conditions: Homo sapiens, SN12C; for inhibition at 10 µM: SN 12C, renal cancer, one dose 10 μM, read-out: Growth Inhibition Percentage (GI %)
# BT-549 = test: NCI-60 anticancer screening (SRB); format: cell-based; conditions: Homo sapiens; for inhibition at 10 µM: BT-549, breast cancer, one dose 10 μM, read-out: Growth Inhibition Percentage (GI %)
# MDA-MB-231 = test: NCI-60 anticancer screening (SRB); format: cell-based; conditions: Homo sapiens; for inhibition at 10 µM: MDA-MB-231, breast cancer, one dose 10 μM, read-out: Growth Inhibition Percentage (GI %)
# MCF7 = test: NCI-60 anticancer screening (SRB); format: cell-based; conditions: Homo sapiens; for inhibition at 10 µM: MCF7, breast cancer, one dose 10 μM, read-out: Growth Inhibition Percentage (GI %)
# NCI-H322M = test: NCI-60 anticancer screening (SRB); format: cell-based; conditions: Homo sapiens; for inhibition at 10 µM: NSC lung cancer, one dose 10 μM, read-out: Growth Inhibition Percentage (GI %)
# HL-60(TB) = test: NCI-60 anticancer screening (SRB); format: cell-based; conditions: Homo sapiens; for inhibition at 10 µM: leukemia, one dose 10 μM, read-out: Growth Inhibition Percentage (GI %)
# COLO 205 = test: NCI-60 anticancer screening (SRB); format: cell-based; conditions: Homo sapiens; for inhibition at 10 µM: COLO 205, colon cancer, one dose 10 μM, read-out: Growth Inhibition Percentage (GI %)
# 786-0 = test: NCI-60 anticancer screening (SRB); format: cell-based; conditions: Homo sapiens; for inhibition at 10 µM: 786-0, renal cancer, one dose 10 μM, read-out: Growth Inhibition Percentage (GI %)
# OVCAR-3 = test: NCI-60 anticancer screening (SRB); format: cell-based; conditions: Homo sapiens; for inhibition at 10 µM: OVCAR-3, ovarian cancer, one dose 10 μM, read-out: Growth Inhibition Percentage (GI %)
# HCC-2998 = test: NCI-60 anticancer screening (SRB); format: cell-based; conditions: Homo sapiens; for inhibition at 10 µM: HCC-2998, colon cancer, one dose 10 μM, read-out: Growth Inhibition Percentage (GI %)
# CAKI-1 = test: NCI-60 anticancer screening (SRB); format: cell-based; conditions: Homo sapiens; for inhibition at 10 µM: CAKI-1, renal cancer, one dose 10 μM, read-out: Growth Inhibition Percentage (GI %)
# SK-MEL-2 = test: NCI-60 anticancer screening (SRB); format: cell-based; conditions: Homo sapiens; for inhibition at 10 µM: SK-MEL-2, melanoma, one dose 10 μM, read-out: Growth Inhibition Percentage (GI %)
# LOX IMVI = test: NCI-60 anticancer screening (SRB); format: cell-based; conditions: Homo sapiens; for inhibition at 10 µM: melanoma, one dose 10 μM, read-out: Growth Inhibition Percentage (GI %)
# HT29 = test: NCI-60 anticancer screening (SRB); format: cell-based; conditions: Homo sapiens, HT-29; for inhibition at 10 µM: HT29, colon cancer, one dose 10 μM, read-out: Growth Inhibition Percentage (GI %)
# A498 = test: NCI-60 anticancer screening (SRB); format: cell-based; conditions: Homo sapiens; for inhibition at 10 µM: A498, renal cancer, one dose 10 μM, read-out: Growth Inhibition Percentage (GI %)
# T-47D = test: NCI-60 anticancer screening (SRB); format: cell-based; conditions: Homo sapiens, T47D; for inhibition at 10 µM: breast cancer, one dose 10 μM, read-out: Growth Inhibition Percentage (GI %)
# OVCAR-4 = test: NCI-60 anticancer screening (SRB); format: cell-based; conditions: Homo sapiens; for inhibition at 10 µM: OVCAR-4, ovarian cancer, one dose 10 μM, read-out: Growth Inhibition Percentage (GI %)
# SK-MEL-5 = test: NCI-60 anticancer screening (SRB); format: cell-based; conditions: Homo sapiens; for inhibition at 10 µM: SK-MEL-5, melanoma, one dose 10 μM, read-out: Growth Inhibition Percentage (GI %)
# RXF 393 = test: NCI-60 anticancer screening (SRB); format: cell-based; conditions: Homo sapiens; for inhibition at 10 µM: RXF 393, renal cancer, one dose 10 μM, read-out: Growth Inhibition Percentage (GI %)
# MOLT-4 = test: NCI-60 anticancer screening (SRB); format: cell-based; conditions: Homo sapiens; for inhibition at 10 µM: MOLT-4, leukemia, one dose 10 μM, read-out: Growth Inhibition Percentage (GI %)
# TK-10 = test: NCI-60 anticancer screening (SRB); format: cell-based; conditions: Homo sapiens; for inhibition at 10 µM: TK-10, renal cancer, one dose 10 μM, read-out: Growth Inhibition Percentage (GI %)
# UO-31 = test: NCI-60 anticancer screening (SRB); format: cell-based; conditions: Homo sapiens; for inhibition at 10 µM: UO-31, renal cancer, one dose 10 μM, read-out: Growth Inhibition Percentage (GI %)
# NCI 60 cancer cell lines = test: NCI-60 anticancer screening (SRB), whole panel; format: cell-based, human
# KM 12 = test: NCI-60 anticancer screening (SRB); format: cell-based; conditions: Homo sapiens, KM12; for inhibition at 10 µM: KM 12, colon cancer, one dose 10 μM, read-out: Growth Inhibition Percentage (GI %)
# HOP-62 = test: NCI-60 anticancer screening (SRB); format: cell-based; conditions: Homo sapiens; for inhibition at 10 µM: HOP-62, NSC lung cancer, one dose 10 μM, read-out: Growth Inhibition Percentage (GI %)
smiles,measurement,setting,value
"CCOC(=O)C1=C(N)N(c2ccccc2)C2=C(C(=O)CC(C)(C)C2)C1c1ccc(Cl)cc1Cl (racemic) [10c, (±)-Ethyl 2-amino-4–(2,4-dichlorophenyl)-7,7-dimethyl-5-oxo-1-phenyl-1,4,5,6,7,8-hexahydroquinoline-3-carboxylate]",inhibition at 10 µM,NCI-H460,82%
same,GI50,"NCI-H460; NCI-H460, five doses 0.01-100 µM, 48 h",1390 nM
same,inhibition at 10 µM,M14,59%
same,GI50,"M14; M14, five doses 0.01-100 µM, 48 h",3480 nM
same,inhibition at 10 µM,UACC-62,73%
same,GI50,"UACC-62; UACC-62, five doses 0.01-100 µM, 48 h",1260 nM
same,inhibition at 10 µM,NCI-H522,65%
same,GI50,"NCI-H522; NCI-H522, five doses 0.01-100 µM, 48 h",2220 nM
same,inhibition at 10 µM,SW-620,< 10%
same,GI50,"SW-620; SW-620, five doses 0.01-100 µM, 48 h",2900 nM
same,inhibition at 10 µM,HS 578T,< 10%
same,GI50,"HS 578T; HS 578 T, five doses 0.01-100 µM, 48 h",7680 nM
same,inhibition at 10 µM,NCI/ADR-RES,76%
same,inhibition at 10 µM,SN 12C,79%
same,GI50,"SN 12C; SN 12 C, five doses 0.01-100 µM, 48 h",3080 nM
same,inhibition at 10 µM,BT-549,67%
same,GI50,"BT-549; BT-549, five doses 0.01-100 µM, 48 h",4580 nM
same,inhibition at 10 µM,MDA-MB-231,75%
same,GI50,"MDA-MB-231; MDA-MB-231, five doses 0.01-100 µM, 48 h",3340 nM
same,inhibition at 10 µM,MCF7,91%
same,GI50,"MCF7; MCF7, five doses 0.01-100 µM, 48 h",1770 nM
same,GI50,"NCI-H322M; NCI-H322-M, five doses 0.01-100 µM, 48 h",7710 nM
same,inhibition at 10 µM,NCI-H322M,43%
same,GI50,"HL-60(TB); five doses 0.01-100 µM, 48 h",5950 nM
same,inhibition at 10 µM,HL-60(TB),99%
same,inhibition at 10 µM,COLO 205,91%
same,GI50,"COLO 205; COLO-205, five doses 0.01-100 µM, 48 h",2060 nM
same,inhibition at 10 µM,786-0,66%
same,GI50,"786-0; 786-0, five doses 0.01-100 µM, 48 h",4240 nM
same,inhibition at 10 µM,OVCAR-3,67%
same,GI50,"OVCAR-3; OVCAR-3, five doses 0.01-100 µM, 48 h",2620 nM
same,inhibition at 10 µM,HCC-2998,62%
same,GI50,"HCC-2998; HCC-2998, five doses 0.01-100 µM, 48 h",2770 nM
same,inhibition at 10 µM,CAKI-1,77%
same,GI50,"CAKI-1; CAKI-1, five doses 0.01-100 µM, 48 h",6820 nM
same,inhibition at 10 µM,SK-MEL-2,112%
same,GI50,"SK-MEL-2; SK-MEL-2, five doses 0.01-100 µM, 48 h",1700 nM
same,GI50,"LOX IMVI; five doses 0.01-100 µM, 48 h",3240 nM
same,inhibition at 10 µM,LOX IMVI,< 10%
same,inhibition at 10 µM,HT29,65%
same,GI50,"HT29; five doses 0.01-100 µM, 48 h",1980 nM
same,inhibition at 10 µM,A498,53%
same,GI50,"A498; A498, five doses 0.01-100 µM, 48 h",4540 nM
same,inhibition at 10 µM,T-47D,79%
same,GI50,"T-47D; five doses 0.01-100 µM, 48 h",1040 nM
same,inhibition at 10 µM,OVCAR-4,75%
same,GI50,"OVCAR-4; OVCAR-4, five doses 0.01-100 µM, 48 h",2830 nM
same,inhibition at 10 µM,SK-MEL-5,102%
same,GI50,"SK-MEL-5; SK-MEL-5, five doses 0.01-100 µM, 48 h",1240 nM
same,inhibition at 10 µM,RXF 393,79%
same,GI50,"RXF 393; RXF 393, five doses 0.01-100 µM, 48 h",1380 nM
same,inhibition at 10 µM,MOLT-4,93%
same,GI50,"MOLT-4; MOLT-4, five doses 0.01-100 µM, 48 h",9560 nM
same,inhibition at 10 µM,TK-10,63%
same,GI50,"TK-10; TK-10, five doses 0.01-100 µM, 48 h",5630 nM
same,inhibition at 10 µM,UO-31,83%
same,GI50,"UO-31; UO-31, five doses 0.01-100 µM, 48 h",1150 nM
same,LC50 (50% lethal concentration),"NCI 60 cancer cell lines; Homo sapiens, 60 cell, five doses, read-out: LC50 values towards 60 cell lines",> 100000 nM
same,GI50,"NCI 60 cancer cell lines; Homo sapiens, five doses 0.01-100 µM, 48 h, read-out: GI50 range against nearly all the tested cell lines",1040 to 9560 nM
same,GI % mean,"NCI 60 cancer cell lines; mean across the NCI-60 panel, one dose 10 μM",74%
same,inhibition at 10 µM,KM 12,81%
same,GI50,"KM 12; KM-12, five doses 0.01-100 µM, 48 h",2360 nM
same,inhibition at 10 µM,HOP-62,49%
same,GI50,"HOP-62; HOP-62, five doses 0.01-100 µM, 48 h",4880 nM
"CCOC(=O)C1=C(N)N(c2ccc(C)cc2)C2=C(C(=O)CC(C)(C)C2)C1c1ccccc1OC (racemic) [6h, (±)-Ethyl 2-amino-4–(2-methoxyphenyl)-7,7-dimethyl-1–(4-methylphenyl)-5-oxo-1,4,5,6,7,8-hexahydroquinoline-3-carboxylate]",inhibition at 10 µM,NCI-H460,< 10%
same,inhibition at 10 µM,M14,< 10%
same,inhibition at 10 µM,UACC-62,< 10%
same,inhibition at 10 µM,NCI-H522,< 10%
same,inhibition at 10 µM,SW-620,< 10%
same,inhibition at 10 µM,HS 578T,< 10%
same,inhibition at 10 µM,NCI/ADR-RES,< 10%
same,inhibition at 10 µM,SN 12C,< 10%
same,inhibition at 10 µM,BT-549,< 10%
same,inhibition at 10 µM,MDA-MB-231,< 10%
same,inhibition at 10 µM,MCF7,< 10%
same,inhibition at 10 µM,NCI-H322M,< 10%
same,inhibition at 10 µM,HL-60(TB),< 10%
same,inhibition at 10 µM,COLO 205,< 10%
same,inhibition at 10 µM,786-0,< 10%
same,inhibition at 10 µM,OVCAR-3,< 10%
same,inhibition at 10 µM,HCC-2998,< 10%
same,inhibition at 10 µM,CAKI-1,< 10%
same,inhibition at 10 µM,SK-MEL-2,< 10%
same,inhibition at 10 µM,LOX IMVI,< 10%
same,inhibition at 10 µM,HT29,< 10%
same,inhibition at 10 µM,A498,< 10%
same,inhibition at 10 µM,T-47D,< 10%
same,inhibition at 10 µM,OVCAR-4,< 10%
same,inhibition at 10 µM,SK-MEL-5,< 10%
same,inhibition at 10 µM,RXF 393,< 10%
same,inhibition at 10 µM,MOLT-4,< 10%
same,melting point,,181 to 183 °C
same,inhibition at 10 µM,TK-10,< 10%
same,inhibition at 10 µM,UO-31,21%
same,inhibition at 10 µM,KM 12,< 10%
same,inhibition at 10 µM,HOP-62,< 10%

# From article PMC10408569, “Recruitment of hexahydroquinoline as anticancer scaffold targeting inhibition of wild and mutants EGFR (EGFR^WT, EGFR^T790M, and EGFR^L858R)” (Journal of Enzyme Inhibition and Medicinal Chemistry, 2023)
